Among the data in ChEMBL document CHEMBL1125208, “Applications of neural networks in quantitative structure-activity relationships of dihydrofolate reductase inhibitors” (J Med Chem, 1991) are Log 1/C values, retold here.

The target of this assay is T1, Dihydrofolate reductase (Mus musculus) (UniProt P00375).
T1 sequence (whole entry): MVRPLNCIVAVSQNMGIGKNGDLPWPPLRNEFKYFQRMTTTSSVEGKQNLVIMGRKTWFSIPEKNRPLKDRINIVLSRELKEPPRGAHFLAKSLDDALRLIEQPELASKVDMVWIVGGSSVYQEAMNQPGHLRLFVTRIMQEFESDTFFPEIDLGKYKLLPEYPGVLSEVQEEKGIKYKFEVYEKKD
Description: Inhibition of dihydrofolate reductase from L1210 leukemia tumors.
Regarding `CC1(C)N=C(N)N=C(N)N1c1ccc(OCc2cccc(S(=O)(=O)F)c2)c(Cl)c1`, the Log 1/C was determined as 7.72.

As to `Cc1cc(S(=O)(=O)F)ccc1COc1ccc(N2C(N)=NC(N)=NC2(C)C)cc1Cl`, the Log 1/C came out at 7.38.

`CC1(C)N=C(N)N=C(N)N1c1ccc(OCCCC(=O)Nc2cccc(S(=O)(=O)F)c2)c(Cl)c1` returned a Log 1/C of 7.17.

`CC1(C)N=C(N)N=C(N)N1c1ccc(CCc2ccc(S(=O)(=O)F)c(Cl)c2)c(Cl)c1` came in with a Log 1/C of 7.85.

In turn, `CC1(C)N=C(N)N=C(N)N1c1ccc(OCc2ccc(C(=O)Nc3ccc(S(=O)(=O)F)cc3)cc2)c(Cl)c1` registered a Log 1/C of 6.92.

As to `CC1(C)N=C(N)N=C(N)N1c1ccc(Cl)c(OCCCOc2ccc(S(=O)(=O)F)cc2)c1`, the Log 1/C was determined as 7.51.

Compound `CC1(C)N=C(N)N=C(N)N1c1ccc(OCCCNC(=O)c2ccc(S(=O)(=O)F)cc2)c(Cl)c1` registered a Log 1/C of 7.34.

Consider `CC1(C)N=C(N)N=C(N)N1c1ccc(OCCCCC(=O)Nc2ccc(S(=O)(=O)F)cc2)c(Cl)c1`, for which the Log 1/C was determined as 7.24.

On to `Cc1cc(NC(=O)NCc2ccc(N3C(N)=NC(N)=NC3(C)C)cc2)ccc1S(=O)(=O)F`, for which the Log 1/C turned out to be 7.72.

Compound `CC1(C)N=C(N)N=C(N)N1c1ccc(SCC(=O)Nc2cccc(S(=O)(=O)F)c2)c(Cl)c1` had a Log 1/C of 7.66.

`CC1(C)N=C(N)N=C(N)N1c1ccc(OCCCCNC(=O)Nc2cccc(S(=O)(=O)F)c2)c(Cl)c1`: the Log 1/C was 7.7.

In the case of `Cc1cc(NC(=O)NCCOc2ccc(N3C(N)=NC(N)=NC3(C)C)cc2Cl)ccc1S(=O)(=O)F`, the Log 1/C came out at 7.82.

In the case of `CC1(C)N=C(N)N=C(N)N1c1ccc(CCCCc2ccccc2S(=O)(=O)F)c(Cl)c1`, the Log 1/C came to 7.77.

`CC1(C)N=C(N)N=C(N)N1c1cccc(CCc2ccc(S(=O)(=O)F)cc2)c1`: the Log 1/C was 8.1.

For the compound `CC1(C)N=C(N)N=C(N)N1c1ccc(OCc2ccc(C(=O)Nc3cccc(S(=O)(=O)F)c3)cc2)c(Cl)c1`, the Log 1/C was 7.41.

Regarding `CN(C(=O)COc1ccc(N2C(N)=NC(N)=NC2(C)C)cc1Cl)c1ccc(S(=O)(=O)F)cc1`, the Log 1/C is 7.47.

The compound `CC1(C)N=C(N)N=C(N)N1c1ccc(CCCCc2ccccc2)c(Cl)c1` showed a Log 1/C of 7.92.

For `CC1(C)N=C(N)N=C(N)N1c1ccc(OCc2ccc(S(=O)(=O)F)c(Cl)c2)c(Cl)c1`, the Log 1/C was found to be 7.43.

Consider `CC1(C)N=C(N)N=C(N)N1c1ccc(OCCCCNC(=O)c2ccc(S(=O)(=O)F)cc2)c(Cl)c1`, for which the Log 1/C was found to be 7.66.

`CC1(C)N=C(N)N=C(N)N1c1ccc(CNC(=O)Nc2ccc(S(=O)(=O)F)cc2)cc1` had a Log 1/C of 7.35.

As for `CC1(C)N=C(N)N=C(N)N1c1ccc(Cl)c(OCCCCOc2ccc(S(=O)(=O)F)cc2)c1`, the Log 1/C amounted to 7.17.

Take `CC1(C)N=C(N)N=C(N)N1c1ccc(OCc2cccc(Cl)c2S(=O)(=O)F)c(Cl)c1`: the Log 1/C is 7.42.

Compound `CC(Oc1ccc(N2C(N)=NC(N)=NC2(C)C)cc1Cl)C(=O)Nc1ccc(S(=O)(=O)F)cc1` (centres undefined) had a Log 1/C of 7.13.

As to `CC1(C)N=C(N)N=C(N)N1c1ccc(OCc2cc(Cl)ccc2S(=O)(=O)F)c(Cl)c1`, the Log 1/C was 7.27.

`CC1(C)N=C(N)N=C(N)N1c1ccc(OCc2cc(S(=O)(=O)F)ccc2Cl)c(Cl)c1` displayed a Log 1/C of 7.38.

As to `CC1(C)N=C(N)N=C(N)N1c1ccc(Cl)c(OCCOc2ccc(S(=O)(=O)F)cc2)c1`, the Log 1/C was found to be 7.27.

Regarding `CC1(C)N=C(N)N=C(N)N1c1ccc(CCCCc2ccc(S(=O)(=O)F)c(Cl)c2)c(Cl)c1`, the Log 1/C worked out at 7.7.

`CC1(C)N=C(N)N=C(N)N1c1ccc(OCCCCCCOc2ccc(S(=O)(=O)F)cc2)c(Cl)c1`: the Log 1/C worked out at 7.46.

`CC1(C)N=C(N)N=C(N)N1c1ccc(SCC(=O)Nc2ccc(S(=O)(=O)F)cc2)cc1`: the Log 1/C was 7.52.

Turning to `CC1(C)N=C(N)N=C(N)N1c1ccc(CCc2ccccc2)cc1`, the Log 1/C was 7.89.

In the case of `CC1(C)N=C(N)N=C(N)N1c1ccc(OCc2cccc(S(=O)(=O)F)c2Cl)c(Cl)c1`, the Log 1/C was determined as 7.49.

`CC1(C)N=C(N)N=C(N)N1c1cccc(CNC(=O)Nc2cccc([N+](=O)[O-])c2)c1` had a Log 1/C of 8.1.

Take `CC1(C)N=C(N)N=C(N)N1c1ccc(CCCCc2ccc(Cl)cc2Cl)cc1`: the Log 1/C was found to be 7.92.

Turning to `CC1(C)N=C(N)N=C(N)N1c1ccc(OCc2ccc(COc3ccc(S(=O)(=O)F)cc3)cc2)c(Cl)c1`, the Log 1/C amounted to 6.82.

Compound `CC1(C)N=C(N)N=C(N)N1c1cccc(CCCCc2ccc(S(=O)(=O)F)cc2)c1` had a Log 1/C of 8.1.

Take `CC1(C)N=C(N)N=C(N)N1c1ccc(CCCCc2cccc(Cl)c2S(=O)(=O)F)c(Cl)c1`: the Log 1/C turned out to be 8.2.

Turning to `CC1(C)N=C(N)N=C(N)N1c1cccc(CNC(=O)Nc2cccc(C#N)c2)c1`, the Log 1/C was determined as 8.19.

The compound `CC1(C)N=C(N)N=C(N)N1c1ccc(CCC(=O)Nc2ccc(S(=O)(=O)F)cc2)c(Cl)c1` had a Log 1/C of 7.62.

`CC1(C)N=C(N)N=C(N)N1c1ccc(CCCCc2ccc(Cl)c(S(=O)(=O)F)c2)c(Cl)c1` registered a Log 1/C of 8.11.

Take `CC1(C)N=C(N)N=C(N)N1c1ccc(CCC(=O)Nc2cccc(S(=O)(=O)F)c2)cc1`: the Log 1/C amounted to 7.74.

With `CC1(C)N=C(N)N=C(N)N1c1ccc(CCCCc2ccc(S(=O)(=O)F)cc2)cc1`, the Log 1/C stood at 7.7.

`CC1(C)N=C(N)N=C(N)N1c1cccc(CCCCc2cc(Cl)ccc2S(=O)(=O)F)c1`: the Log 1/C came to 7.96.

The compound `CC1(C)N=C(N)N=C(N)N1c1ccc(OCc2ccc(S(=O)(=O)F)cc2Cl)c(Cl)c1` showed a Log 1/C of 7.44.

`CC1(C)N=C(N)N=C(N)N1c1ccc(OCCCNC(=O)Nc2ccc(S(=O)(=O)F)cc2)c(Cl)c1` gave a Log 1/C of 7.68.

`CC1(C)N=C(N)N=C(N)N1c1ccc(OCCCCOc2ccc(S(=O)(=O)F)cc2)c(Cl)c1`: the Log 1/C was determined as 7.57.

The compound `CC1(C)N=C(N)N=C(N)N1c1ccc(Cl)c(CCCCc2ccc(S(=O)(=O)F)cc2)c1` showed a Log 1/C of 6.77.

`CC1(C)N=C(N)N=C(N)N1c1ccc(Cl)c(CCc2ccc(S(=O)(=O)F)cc2)c1` registered a Log 1/C of 5.82.

On to `CC1(C)N=C(N)N=C(N)N1c1ccc(OCc2ccc(Cl)cc2S(=O)(=O)F)c(Cl)c1`, for which the Log 1/C is 7.52.

As to `CN(C)C(=O)c1cccc(NC(=O)NCc2cccc(N3C(N)=NC(N)=NC3(C)C)c2)c1`, the Log 1/C stood at 7.77.

The compound `CC1(C)N=C(N)N=C(N)N1c1cccc(CCCCc2ccc(Cl)cc2Cl)c1` showed a Log 1/C of 8.03.

Turning to `CC1(C)N=C(N)N=C(N)N1c1cccc(OCCCOc2ccc(S(=O)(=O)F)cc2)c1`, the Log 1/C was determined as 7.96.

`CC1(C)N=C(N)N=C(N)N1c1cccc(OCCOc2ccc(S(=O)(=O)F)cc2)c1`: the Log 1/C came to 7.82.

For the compound `CC1(C)N=C(N)N=C(N)N1c1ccc(OCC(=O)Nc2ccc(S(=O)(=O)F)cc2)c(Cl)c1`, the Log 1/C was 7.43.

Regarding `CC1(C)N=C(N)N=C(N)N1c1ccc(OCCCCCOc2ccc(S(=O)(=O)F)cc2)c(Cl)c1`, the Log 1/C came to 7.57.

Compound `CC1(C)N=C(N)N=C(N)N1c1ccc(CCC(=O)Nc2ccc(S(=O)(=O)F)cc2)cc1` showed a Log 1/C of 7.6.

In turn, `CC1(C)N=C(N)N=C(N)N1c1cccc(OCC(=O)Nc2ccc(S(=O)(=O)F)cc2)c1` showed a Log 1/C of 6.92.

`CC1(C)N=C(N)N=C(N)N1c1ccc(OCc2ccccc2S(=O)(=O)F)c(Cl)c1` returned a Log 1/C of 7.43.

In the case of `CC1(C)N=C(N)N=C(N)N1c1ccc(Cl)c(OCCCCCOc2ccc(S(=O)(=O)F)cc2)c1`, the Log 1/C was determined as 6.72.

As for `CC1(C)N=C(N)N=C(N)N1c1ccc(OCc2c(Cl)cccc2S(=O)(=O)F)c(Cl)c1`, the Log 1/C was found to be 7.72.

As to `CC1(C)N=C(N)N=C(N)N1c1ccc(CCc2ccc(S(=O)(=O)F)cc2Cl)c(Cl)c1`, the Log 1/C stood at 8.33.

In the case of `CC1(C)N=C(N)N=C(N)N1c1ccc(OCc2ccc(Cl)c(S(=O)(=O)F)c2)c(Cl)c1`, the Log 1/C came to 8.

`CC1(C)N=C(N)N=C(N)N1c1ccc(CCc2cccc(Cl)c2S(=O)(=O)F)c(Cl)c1`: the Log 1/C was 8.3.

`CC1(C)N=C(N)N=C(N)N1c1ccc(OCCCNC(=O)Nc2cccc(S(=O)(=O)F)c2)c(Cl)c1` displayed a Log 1/C of 7.28.

For the compound `CC1(C)N=C(N)N=C(N)N1c1ccc(OCCCC(=O)Nc2ccc(S(=O)(=O)F)cc2)c(Cl)c1`, the Log 1/C was 7.15.

`COc1cccc(NC(=O)NCc2cccc(N3C(N)=NC(N)=NC3(C)C)c2)c1` showed a Log 1/C of 8.02.

Regarding `Cc1cc(NC(=O)NCCCOc2ccc(N3C(N)=NC(N)=NC3(C)C)cc2Cl)ccc1S(=O)(=O)F`, the Log 1/C is 8.06.

Compound `CC1(C)N=C(N)N=C(N)N1c1ccc(CCCCCCc2ccc(S(=O)(=O)F)cc2)cc1` returned a Log 1/C of 7.12.

Compound `CC1(C)N=C(N)N=C(N)N1c1ccc(OCCOCCOc2ccc(S(=O)(=O)F)cc2)c(Cl)c1` gave a Log 1/C of 7.14.

In turn, `CC1(C)N=C(N)N=C(N)N1c1ccc(OCc2ccc(S(=O)(=O)F)cc2)c(Cl)c1` displayed a Log 1/C of 7.58.

`CC1(C)N=C(N)N=C(N)N1c1cccc(CCCCc2ccc(Cl)c(S(=O)(=O)F)c2)c1` came in with a Log 1/C of 8.37.

For `CC1(C)N=C(N)N=C(N)N1c1ccc(CC(C(=O)Nc2cccc(S(=O)(=O)F)c2)c2ccccc2)cc1` (centres undefined), the Log 1/C came to 6.89.

`CC1(C)N=C(N)N=C(N)N1c1cccc(CNC(=O)N2CCOCC2)c1` had a Log 1/C of 6.43.

`CC1(C)N=C(N)N=C(N)N1c1cccc(CCCCc2cccc(S(=O)(=O)F)c2)c1`: the Log 1/C was found to be 8.1.

As for `CC1(C)N=C(N)N=C(N)N1c1ccc(CNC(=O)Nc2ccc(S(=O)(=O)F)cc2)c(Cl)c1`, the Log 1/C is 7.92.

Compound `CC1(C)N=C(N)N=C(N)N1c1cccc(OCCCCOc2ccc(S(=O)(=O)F)cc2)c1` displayed a Log 1/C of 7.49.

As to `CC1(C)N=C(N)N=C(N)N1c1cccc(CCCCc2ccc(S(=O)(=O)F)c(Cl)c2)c1`, the Log 1/C was determined as 7.7.

Take `CC1(C)N=C(N)N=C(N)N1c1cccc(CNC(=O)Nc2cccc(Cl)c2)c1`: the Log 1/C turned out to be 8.05.

Turning to `CC1(C)N=C(N)N=C(N)N1c1ccc(CCCCc2ccc(S(=O)(=O)F)cc2Cl)cc1`, the Log 1/C turned out to be 7.96.

On to `CC1(C)N=C(N)N=C(N)N1c1ccc(OCCCNC(=O)Nc2cccc(S(=O)(=O)F)c2)cc1`, for which the Log 1/C worked out at 7.32.
